From EP1718648B1, “TRICYCLIC IMIDAZOPYRIDINES AND INTERMEDIATES FOR THE SYNTHESIS THEREOF” (Nycomed GmbH, priority 2004, dated 2005) come the findings set out here.

This test deals with pentagastrin-stimulated acid secretion of the perfused rat stomach. The experiment in a line: Testing of the secretion-inhibiting action on the perfused rat stomach. The conditions noted are these: Dose 1.0 µmol/kg i.d. (intraduodenal), in vivo; anesthetized CD rat, female; pentagastrin 1 µg/kg i.v. continuous infusion. From the text:
The compounds of the formula 2 according to the invention investigated in the model mentioned below have been provided with letters which correspond to the letters of these compounds in the examples.
In Table A which follows, the influence of the compounds of the formula 2 according to the invention on the pentagastrin-stimulated acid secretion of the perfused rat stomach after intraduodenal administration in vivo is shown. Table A
The abdomen of anesthetized rats (CD rat, female, 200-250 g; 1.5 g/kg i.m. urethane) was opened after tracheotomy by a median upper abdominal incision and a PVC catheter was fixed transorally in the esophagus and another via the pylorus such that the ends of the tubes just projected into the gastric lumen. The catheter leading from the pylorus led outward into the right abdominal wall through a side opening.
After thorough rinsing (about 50-100 ml), warm (37°C) physiological NaCl solution was continuously passed through the stomach (0.5 ml/min, pH 6.8-6.9; Braun-Unita I). The pH (pH meter 632, glass electrode EA 147; φ = 5 mm, Metrohm) and, by titration with a freshly prepared 0.01 N NaOH solution to pH 7 (Dosimat 665 Metrohm), the secreted HCl were determined in the effluent in each case collected at an interval of 15 minutes.
The gastric secretion was stimulated by continuous infusion of 1 µg/kg (=1.65 ml/h) of i.v. pentagastrin (left femoral vein) about 30 min after the end of the operation (i.e. after determination of 2 preliminary fractions). The substances to be tested were administered intraduodenally in a 2.5 ml/kg liquid volume 60 min after the start of the continuous pentagastrin infusion.
The body temperature of the animals was kept at a constant 37.8-38°C by infrared irradiation and heat pads (automatic, stepless control by means of a rectal temperature sensor).

Take `Cc1nc2c3c(c(C(=O)N(C)C)cn2c1C)CC[C@H](c1ccccc1)N3` [k, (8R)-2,3-Dimethyl-8-phenyl-6,7,8,9-tetrahydro-1,3a,9-triaza-cyclopenta[a]naphthalene-5-carboxylic Acid Dimethylamide]: the “Inhibition of acid secretion (%)” value is on record as under 50%.

Consider `CNC(=O)c1cn2c(C)c(C)nc2c2c1CC[C@H](c1ccccc1)N2` [l, (8R)-2,3-Dimethyl-8-phenyl-6,7,8,9-tetrahydro-1,3a,9-triaza-cyclopenta[a]naphthalene-5-carboxylic Acid Methylamide], for which the “Inhibition of acid secretion (%)” value is on record as under 50%.

For the compound `Cc1nc2c3c(c(C(N)=O)cn2c1C)CCC(c1ccccc1)N3` (stereo not drawn) [f, 2,3-Dimethyl-8-phenyl-6,7,8,9-tetrahydro-1,3a,9-triaza-cyclopenta[a]naphthalene-5-carboxylic Acid Amide], the “Inhibition of acid secretion (%)” value is over 50%.

Take `Cc1nc2c3c(c(C(N)=O)cn2c1C)CC[C@H](c1ccccc1)N3` [p, (8R)-2,3-Dimethyl-8-phenyl-6,7,8,9-tetrahydro-1,3a,9-triaza-cyclopenta[a]naphthalene-5-carboxylic Acid Amide]: the “Inhibition of acid secretion (%)” value is under 50%.

As for `Cc1nc2c3c(c(C(=O)NC4CC4)cn2c1C)CC[C@@H](c1ccccc1)N3` [o, (8S)-2,3-Dimethyl-8-phenyl-6,7,8,9-tetrahydro-1,3a,9-triaza-cyclopenta[a]naphthalene-5-carboxylic Acid Cyclopropylamide], the “Inhibition of acid secretion (%)” value is listed as over 50%.

For `Cc1nc2c3c(c(C(N)=O)cn2c1C)CC[C@@H](c1ccccc1)N3` [q, (8S)-2,3-Dimethyl-8-phenyl-6,7,8,9-tetrahydro-1,3a,9-triaza-cyclopenta[a]naphthalene-5-carboxylic Acid Amide], the “Inhibition of acid secretion (%)” value was over 50%.

For `Cc1nc2c3c(c(C(=O)N4CCCC4)cn2c1C)CCC(c1ccccc1)N3` (stereo not drawn) [h, 1-(2,3-Dimethyl-8-phenyl-6,7,8,9-tetrahydro-1,3a,9-triaza-cyclopenta[a]naphthalen-5-yl)-1-pyrrolidin-1-yl-methanone], the “Inhibition of acid secretion (%)” value is over 50%.

With `Cc1nc2c3c(c(C(=O)N(C)C)cn2c1C)CC[C@@H](c1ccccc1)N3` [j, (8S)-2,3-Dimethyl-8-phenyl-6,7,8,9-tetrahydro-1,3a,9-triaza-cyclopenta[a]naphthalene-5-carboxylic Acid Dimethylamide], the “Inhibition of acid secretion (%)” value is on record as over 50%.

Turning to `Cc1nc2c3c(c(C(=O)N(C)C)cn2c1C)CCC(c1ccccc1)N3` (stereo not drawn) [e, 2,3-Dimethyl-8-phenyl-6,7,8,9-tetrahydro-1,3a,9-triaza-cyclopenta[a]naphthalene-5-carboxylic Acid Dimethylamide], the “Inhibition of acid secretion (%)” value is recorded as over 50%.

For the compound `CNC(=O)c1cn2c(C)c(C)nc2c2c1CC[C@@H](c1ccccc1)N2` [m, (8S)-2,3-Dimethyl-8-phenyl-6,7,8,9-tetrahydro-1,3a,9-triaza-cyclopenta[a]naphthalene-5-carboxylic Acid Methylamide], the “Inhibition of acid secretion (%)” value is recorded as over 50%.

As for `Cc1nc2c3c(c(C(=O)NC4CC4)cn2c1C)CC[C@H](c1ccccc1)N3` [n, (8R)-2,3-Dimethyl-8-phenyl-6,7,8,9-tetrahydro-1,3a,9-triaza-cyclopenta[a]naphthalene-5-carboxylic Acid Cyclopropylamide], the “Inhibition of acid secretion (%)” value is on record as under 50%.

For `CNC(=O)c1cn2c(C)c(C)nc2c2c1CCC(c1ccccc1)N2` (stereo not drawn) [c, 2,3-Dimethyl-8-phenyl-6,7,8,9-tetrahydro-1,3a,9-triaza-cyclopenta[a]naphthalene-5-carboxylic Acid Methylamide], the “Inhibition of acid secretion (%)” value was over 50%.
